Reference: patent US10357493B2, “Metalloenzyme inhibitor compounds” (Selenity Therapeutics (Bermuda), Ltd., priority 2017, dated 2019)
One block for each molecule: values may come before it.

Tests used:
HDAC6 = HDAC6 (Homo sapiens (Human), UniProt Q9UBN7); assay: HDAC6 enzymatic assay; assay type: biochemical; settings: read-out: Human HDAC6 IC50
Experimental: (§1) All enzymatic reactions were conducted in duplicate at room temperature for 17 hours in a 50 μl mixture containing HDAC assay buffer (50 mM Tris-HCl, pH 7.4, 137 mM NaCl, 2.7 mM KCl, 0.05% Tween 20, 5 μg BSA), an HDAC substrate, an HDAC enzyme, and a test compound. Compound dilution was prepared ten-fold higher than the final concentration of the compounds with 10% DMSO in HDAC assay buffer and 5 μl of the dilution was added to a 50 μl reaction so that the final concentration of DMSO is 1% in all of reactions. After enzymatic reactions, 50 μl of HDAC Developer was added to each well and the plate was incubated at room temperature for an additional 20 minutes. Fluorescence intensity was measured at an excitation of 360 nm and an emission of 460 nm using a Tecan Infinite M1000 or Biotek Synergy microplate reader.
(§2) The fluorescent intensity data were analyzed using the computer software, Graphpad Prism. In the absence of the compound, the fluorescent intensity (Ft) in each data set was defined as 100% activity. In the absence of HDAC, the fluorescent intensity (Fb) in each data set was defined as 0% activity. The percent activity in the presence of each compound was calculated according to the following equation: % activity=(F−Fb)/(Ft−Fb), where F=the fluorescent intensity in the presence of the compound.
(§3) The values of % activity versus a series of compound concentrations were then plotted using non-linear regression analysis of Sigmoidal dose-response curve generated with the equation Y=B+(T−B)/1+10((Log EC50−X)×Hill Slope), where Y=percent activity, B=minimum percent activity, T=maximum percent activity, X=logarithm of compound and Hill Slope=slope factor or Hill coefficient. The IC50 value was determined by the concentration causing a half-maximal percent activity.
(§4) HDAC1 enzymatic assays contained 0.5 ng HDAC1 and 10 uM of HDAC substrate. HDAC2 enzymatic assays contained 0.5 ng HDAC2 and 10 uM of HDAC substrate. HDAC3 enzymatic assays contained 0.4 ng HDAC3/NCOR2 and 10 uM of HDAC substrate. HDAC4 enzymatic assays contained 0.02 ng HDAC4 and 2 uM of HDAC substrate. HDAC5 enzymatic assays contained 0.5 ng HDAC5 and 2 uM of HDAC substrate. HDAC6 enzymatic assays contained 2 ng HDAC6 and 10 uM of HDAC substrate. HDAC7 enzymatic assays contained 0.05 ng HDAC7 and 2 uM of HDAC substrate. HDAC8 enzymatic assays contained 5 ng HDAC8 and 2 uM of HDAC substrate. HDAC9 enzymatic assays contained 1 ng HDAC9 and 2 uM of HDAC substrate. HDAC10 enzymatic assays contained 75 ng HDAC10 and 10 uM of HDAC substrate. HDAC11 enzymatic assays contained 5 ng HDAC11 and 2 uM of HDAC substrate.

HDAC1 = HDAC1 (Homo sapiens (Human), UniProt Q13547); assay: HDAC1 enzymatic assay; assay type: biochemical; settings: read-out: Human HDAC1 IC50
Experimental: as §1, §2, §3, §4

Chain of HDAC1 (Q13547 whole entry): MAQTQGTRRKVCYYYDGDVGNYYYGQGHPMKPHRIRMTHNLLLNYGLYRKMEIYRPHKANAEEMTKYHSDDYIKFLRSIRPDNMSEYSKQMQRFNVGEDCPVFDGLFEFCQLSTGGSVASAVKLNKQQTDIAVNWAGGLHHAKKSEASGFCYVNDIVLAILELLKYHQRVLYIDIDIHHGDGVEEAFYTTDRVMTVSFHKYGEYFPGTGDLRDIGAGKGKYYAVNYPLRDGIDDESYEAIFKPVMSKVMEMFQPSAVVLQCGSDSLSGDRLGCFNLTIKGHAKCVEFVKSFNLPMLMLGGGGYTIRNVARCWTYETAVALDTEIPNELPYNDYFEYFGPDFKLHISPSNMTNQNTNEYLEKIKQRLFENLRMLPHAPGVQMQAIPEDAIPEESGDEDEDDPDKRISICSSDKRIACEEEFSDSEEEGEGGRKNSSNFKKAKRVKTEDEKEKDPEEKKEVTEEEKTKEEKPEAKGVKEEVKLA
Chain of HDAC6 (Q9UBN7 whole entry): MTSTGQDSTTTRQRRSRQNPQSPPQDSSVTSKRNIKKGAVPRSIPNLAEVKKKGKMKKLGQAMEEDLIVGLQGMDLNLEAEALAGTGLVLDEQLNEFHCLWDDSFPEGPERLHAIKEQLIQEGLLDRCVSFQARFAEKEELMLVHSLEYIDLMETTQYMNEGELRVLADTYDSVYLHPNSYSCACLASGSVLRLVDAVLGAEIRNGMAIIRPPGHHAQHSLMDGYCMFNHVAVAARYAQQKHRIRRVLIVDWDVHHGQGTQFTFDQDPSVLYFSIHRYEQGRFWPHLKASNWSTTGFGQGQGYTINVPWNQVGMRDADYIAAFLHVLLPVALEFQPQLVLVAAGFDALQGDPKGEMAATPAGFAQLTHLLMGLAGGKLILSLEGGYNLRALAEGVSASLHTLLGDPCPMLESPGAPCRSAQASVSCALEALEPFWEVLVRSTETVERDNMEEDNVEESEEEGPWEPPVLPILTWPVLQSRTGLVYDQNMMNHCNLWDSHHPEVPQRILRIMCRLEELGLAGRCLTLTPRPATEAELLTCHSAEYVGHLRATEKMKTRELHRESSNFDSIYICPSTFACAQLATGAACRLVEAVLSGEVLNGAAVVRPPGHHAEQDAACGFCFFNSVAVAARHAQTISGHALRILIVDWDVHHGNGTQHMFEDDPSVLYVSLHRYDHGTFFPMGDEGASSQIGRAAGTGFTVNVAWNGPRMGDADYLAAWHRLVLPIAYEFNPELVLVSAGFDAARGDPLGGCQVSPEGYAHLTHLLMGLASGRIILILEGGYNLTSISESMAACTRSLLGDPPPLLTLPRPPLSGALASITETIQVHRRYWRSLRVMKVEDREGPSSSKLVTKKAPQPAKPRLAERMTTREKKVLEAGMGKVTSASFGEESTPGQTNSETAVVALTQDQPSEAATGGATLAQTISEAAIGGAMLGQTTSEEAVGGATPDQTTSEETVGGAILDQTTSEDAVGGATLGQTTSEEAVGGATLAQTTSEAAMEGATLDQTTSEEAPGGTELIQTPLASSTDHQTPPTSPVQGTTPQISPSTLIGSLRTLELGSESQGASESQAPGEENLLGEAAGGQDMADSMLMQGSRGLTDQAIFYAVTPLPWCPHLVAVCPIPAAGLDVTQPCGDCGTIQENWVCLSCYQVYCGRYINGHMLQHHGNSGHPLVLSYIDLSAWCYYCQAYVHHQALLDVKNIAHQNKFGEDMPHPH

SMILES: Cc1cccc(CNc2ncc(-c3nnc(C(F)(F)F)o3)cn2)n1 [Example 3, N-((6-methylpyridin-2-yl)methyl)-5-(5-(trifluoromethyl)-1,3,4-oxadiazol-2-yl) pyrimidin-2-amine]
IC50 (HDAC6): 230 nM
IC50 (HDAC1): > 30 µM

SMILES: FC(F)c1nnc(-c2cnc(NC3(c4cccc(C(F)(F)F)c4)CC3)nc2)o1 [Example 49, 5-(5-(difluoromethyl)-1,3,4-oxadiazol-2-yl)-N-(1-(3-(trifluoromethyl)phenyl)cyclopropyl) pyrimidin-2-amine]
IC50 (HDAC6): 16 nM
IC50 (HDAC1): > 30 µM

SMILES: CCS(=O)(=O)N(CC(Nc1ncc(-c2nnc(C(F)F)o2)cn1)c1ccc(F)cc1)CC(F)(F)F (single isomer, unassigned) [164(+), N-(2-((5-(5-(difluoromethyl)-1,3,4-oxadiazol-2-yl)pyrimidin-2-yl)amino)-2-(4-fluorophenyl)ethyl)-N-(2,2,2-trifluoroethyl)ethanesulfonamide]
IC50 (HDAC6): 110 nM
IC50 (HDAC1): > 30 µM

SMILES: CS(=O)(=O)NCC(Nc1ncc(-c2nnc(C(F)F)o2)cn1)c1ccc(OC(F)F)cc1 (single isomer, unassigned) [115(−), N-(2-(4-(difluoromethoxy)phenyl)-2-((5-(5-(difluoromethyl)-1,3,4-oxadiazol-2-yl)pyrimidin-2-yl)amino)ethyl)methanesulfonamide]
IC50 (HDAC6): 370 nM
IC50 (HDAC1): > 30 µM

SMILES: CC(Nc1ncc(-c2nnc(C(F)F)o2)cn1)c1ccc(F)cn1 (centres unmarked) [Example 31, 5-(5-(difluoromethyl)-1,3,4-oxadiazol-2-yl)-N-(1-(5-fluoropyridin-2-yl)ethyl)pyrimidin-2-amine]
IC50 (HDAC6): 120 nM
IC50 (HDAC1): > 30 µM

SMILES: Fc1ccc(C(Cn2cc(C(F)(F)F)cn2)Nc2ncc(-c3nnc(C(F)F)o3)cn2)cc1 (single isomer, unassigned) [176(+), 5-(5-(difluoromethyl)-1,3,4-oxadiazol-2-yl)-N-(1-(4-fluorophenyl)-2-(4-(trifluoromethyl)-1H-pyrazol-1-yl)ethyl)pyrimidin-2-amine]
IC50 (HDAC6): 160 nM
IC50 (HDAC1): > 30 µM

More lines, in order of falling IC50 (HDAC6), values ahead:

IC50 (HDAC6): 610 nM
IC50 (HDAC1): > 30 µM
SMILES: CC(C)C1(Nc2ncc(-c3nnc(C(F)F)o3)cn2)CC1 [Example 28, 5-(5-(difluoromethyl)-1,3,4-oxadiazol-2-yl)-N-(1-isopropylcyclopropyl)pyrimidin-2-amine]

IC50 (HDAC6): 320 nM
IC50 (HDAC1): > 30 µM
SMILES: CS(=O)(=O)N(CC(Nc1ncc(-c2nnc(C(F)F)o2)cn1)c1ccc(F)c(F)c1)CC(F)(F)F (single isomer, unassigned) [172(A), N-(2-((5-(5-(difluoromethyl)-1,3,4-oxadiazol-2-yl)pyrimidin-2-yl)amino)-2-(3,4-difluorophenyl)ethyl)-N-(2,2,2-trifluoroethyl)methanesulfonamide]

IC50 (HDAC6): 180 nM
IC50 (HDAC1): > 30 µM
SMILES: Fc1ccc(C2(Nc3ncc(-c4nnc(C(F)F)o4)cn3)CCC(F)(F)CC2)cc1 [Example 37, N-(4,4-difluoro-1-(4-fluorophenyl)cyclohexyl)-5-(5-(difluoromethyl)-1,3,4-oxadiazol-2-yl)pyrimidin-2-amine]

IC50 (HDAC6): 61 nM
SMILES: Fc1ccc(C(COC2CC2)Nc2ncc(-c3nnc(C(F)F)o3)cn2)c(F)c1 (single isomer, unassigned) [Example 134B, N-(2-cyclopropoxy-1-(2,4-difluorophenyl)ethyl)-5-(5-(difluoromethyl)-1,3,4-oxadiazol-2-yl)pyrimidin-2-amine]

IC50 (HDAC6): 30 nM
IC50 (HDAC1): > 30 µM
SMILES: CC(Nc1ncc(-c2nnc(C(F)F)o2)cn1)c1c(F)cccc1F (single isomer, unassigned; (+)) [100(+), (+)-5-(5-(difluoromethyl)-1,3,4-oxadiazol-2-yl)-N-(1-(2,6-difluorophenyl)ethyl)pyrimidin-2-amine]

IC50 (HDAC6): 18 nM
IC50 (HDAC1): > 30 µM
SMILES: CCS(=O)(=O)NCC(Nc1ncc(-c2nnc(C(F)F)o2)cn1)c1ccc(OC(F)F)cc1F (stereo not drawn) [147(+), N-(2-(4-(difluoromethoxy)-2-fluorophenyl)-2-((5-(5-(difluoromethyl)-1,3,4-oxadiazol-2-yl)pyrimidin-2-yl)amino)ethyl)ethanesulfonamide]
